Experimental data from patent US6392025B1, “Human NHE3 protein and non-human cells expressing same” (Tranzmembrane, LLC, priority 1995, dated 2002).
Entries after “also recorded” stand apart in the source; their conditions may differ. Like-named read-outs stand apart in the source and are kept apart here.

Assays:
[1] = molecular target: T1, human NHE3 (Homo sapiens, UniProt P48764); assay: Na+/H+ exchange activity by BCECF fluorescence (pHi) in HNHE3/PS120 cells; format: cell-based
T1 construct: expressed in transfected cells; host or cells: PS120 (Na+/H+ exchanger deficient derivative of Chinese hamster lung fibroblast line CCL39), plasmid pEH3 (pECE vector)
T1 sequence (P48764 26-834): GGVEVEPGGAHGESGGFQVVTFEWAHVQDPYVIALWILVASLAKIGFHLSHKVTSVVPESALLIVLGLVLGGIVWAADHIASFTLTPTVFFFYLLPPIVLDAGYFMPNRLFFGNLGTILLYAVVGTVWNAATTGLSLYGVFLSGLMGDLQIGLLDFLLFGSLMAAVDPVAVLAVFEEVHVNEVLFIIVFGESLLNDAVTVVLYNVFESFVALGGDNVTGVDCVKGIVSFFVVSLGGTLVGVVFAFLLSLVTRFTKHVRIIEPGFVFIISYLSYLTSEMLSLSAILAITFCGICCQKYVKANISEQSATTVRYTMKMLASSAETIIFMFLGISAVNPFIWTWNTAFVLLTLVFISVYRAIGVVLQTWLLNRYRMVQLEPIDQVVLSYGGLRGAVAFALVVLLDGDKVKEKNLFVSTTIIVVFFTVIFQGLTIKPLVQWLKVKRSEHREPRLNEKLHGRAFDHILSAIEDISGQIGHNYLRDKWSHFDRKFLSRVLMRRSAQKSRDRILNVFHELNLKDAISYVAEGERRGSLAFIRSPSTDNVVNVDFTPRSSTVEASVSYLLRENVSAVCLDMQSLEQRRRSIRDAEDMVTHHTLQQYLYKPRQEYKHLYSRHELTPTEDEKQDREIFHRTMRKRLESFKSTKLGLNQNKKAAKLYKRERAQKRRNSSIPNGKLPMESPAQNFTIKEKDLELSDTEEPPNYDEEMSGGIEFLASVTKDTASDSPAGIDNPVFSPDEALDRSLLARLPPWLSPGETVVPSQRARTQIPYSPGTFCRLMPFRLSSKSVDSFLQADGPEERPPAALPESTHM
Procedure: HNHE3/PS120 cells were grown to 70-80% confluency on glass coverslips, serum starved overnight to arrest growth, washed with Na^+ medium (containing in mM: 130 NaCl, 5 KCl, 2 CaCl2, 1 MgSO4, 1 NaPO4, 25 glucose, 20 HEPES, pH 7.4) and loaded with the acetoxymethyl ester of 2′,7′-bis(2-carboxyethyl)-5-(and-6)carboxyfluorescein (BCECF) as previously discussed (31). Cells were washed with TMA medium (containing in mM: 130 tetramethylammonium-C1, 5 KCl, 2 CaCl2 1 MgSO4, 1 TMA-P04, 25 glucose, 20 HEPES, pH 7.4), mounted in a cuvette, and perfused at 37° C. Cells were acidified by perfusing with 30 mM NH4Cl prepulse followed by removal of NH4Cl with TMA medium. The cuvette was then perfused with Na^+ medium. […] Na^+/H^+ exchange was determined by multiplying the initial rate of Na^+ dependent alkalinization by intracellular buffering capacity, as described.
HNHE3/PS120 cells loaded with BCECF were acidified by NH4Cl prepulse.
Serum starved HNHE3/PS120 cells were acidified by a NH4Cl prepulse and allowed to recover in 130 mM Na^+ medium until steady-state pHi was obtained.

[2] = molecular target: T1, human NHE3; assay: 22Na+ uptake in acid loaded HNHE3/PS120 cells; format: cell-based; conditions: 22Na+ 1 mM
Procedure: Stably transfected HNHE3/PS 120 cells were grown to near confluency in 24-well plates. The cells were serum-starved for 24 hours to arrest growth. ^22Na^+ uptake (1 mM) was measured during the linear phase of uptake in the presence of 1 mM ouabain and various concentrations of potential inhibitors amiloride or ethylisopropylamiloride (EIPA) following acidification with NH4Cl prepulse, as detailed previously (30).
Human brush border epithelial Na^+/H^+ exchange has been characterized as being much less sensitive to inhibition by amiloride and its 5-amino-substituted analogues than basolateral and nonepithelial membrane Na^+/H^+ exchangers (10,24,36). Therefore we determined the quantitative sensitivity of HNHE3/PS120 cells to inhibition by amiloride and EIPA by ^22Na^+ uptake studies. The concentration dependence for amiloride and EIPA inhibition of the initial rate of ^22Na^+ uptake (1 mM) into acid loaded HNHE3/PS120 cells was determined.
Three independent experiments were performed. […] FIG. 6 provides curves are from a representative experiment. Each point represents the mean percent of control ^22Na^+ uptake of duplicate experiments for each concentration of inhibitor. The curves are nonlinear least squares fits of the data assuming a single binding site for the inhibition (GraphPAD Software, Inc., San Diego, Calif.).

[3] = molecular target: Rat NHE3 (Rattus norvegicus, UniProt P26433); conditions: read-out: Inhibition constants (IC50); cited from earlier work
Rat NHE3, sequence (P26433 29-831): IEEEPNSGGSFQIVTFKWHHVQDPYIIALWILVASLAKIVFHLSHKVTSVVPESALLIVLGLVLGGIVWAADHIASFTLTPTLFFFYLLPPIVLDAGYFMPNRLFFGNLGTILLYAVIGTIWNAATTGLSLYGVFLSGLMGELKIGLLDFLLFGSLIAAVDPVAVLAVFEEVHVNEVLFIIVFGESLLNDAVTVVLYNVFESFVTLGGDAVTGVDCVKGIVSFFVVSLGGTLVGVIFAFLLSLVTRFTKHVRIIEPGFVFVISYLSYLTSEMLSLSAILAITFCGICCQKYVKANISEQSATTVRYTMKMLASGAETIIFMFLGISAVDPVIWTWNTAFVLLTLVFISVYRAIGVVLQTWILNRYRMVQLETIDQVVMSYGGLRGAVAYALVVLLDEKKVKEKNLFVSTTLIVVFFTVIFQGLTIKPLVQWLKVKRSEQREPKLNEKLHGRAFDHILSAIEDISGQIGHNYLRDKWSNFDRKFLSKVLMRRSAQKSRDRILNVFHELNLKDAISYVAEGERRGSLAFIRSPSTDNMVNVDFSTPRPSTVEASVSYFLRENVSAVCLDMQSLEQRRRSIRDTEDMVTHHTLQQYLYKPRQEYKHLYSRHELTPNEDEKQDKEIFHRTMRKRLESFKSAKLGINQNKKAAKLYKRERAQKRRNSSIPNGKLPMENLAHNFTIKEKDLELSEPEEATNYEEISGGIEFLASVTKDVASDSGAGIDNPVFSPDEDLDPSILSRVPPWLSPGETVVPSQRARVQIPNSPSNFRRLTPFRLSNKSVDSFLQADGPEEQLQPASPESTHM

[4] = molecular target: Rabbit NHE3 (Oryctolagus cuniculus, UniProt P26432); conditions: read-out: Inhibition constants (IC50); cited from earlier work
Rabbit NHE3, sequence (P26432 30-832): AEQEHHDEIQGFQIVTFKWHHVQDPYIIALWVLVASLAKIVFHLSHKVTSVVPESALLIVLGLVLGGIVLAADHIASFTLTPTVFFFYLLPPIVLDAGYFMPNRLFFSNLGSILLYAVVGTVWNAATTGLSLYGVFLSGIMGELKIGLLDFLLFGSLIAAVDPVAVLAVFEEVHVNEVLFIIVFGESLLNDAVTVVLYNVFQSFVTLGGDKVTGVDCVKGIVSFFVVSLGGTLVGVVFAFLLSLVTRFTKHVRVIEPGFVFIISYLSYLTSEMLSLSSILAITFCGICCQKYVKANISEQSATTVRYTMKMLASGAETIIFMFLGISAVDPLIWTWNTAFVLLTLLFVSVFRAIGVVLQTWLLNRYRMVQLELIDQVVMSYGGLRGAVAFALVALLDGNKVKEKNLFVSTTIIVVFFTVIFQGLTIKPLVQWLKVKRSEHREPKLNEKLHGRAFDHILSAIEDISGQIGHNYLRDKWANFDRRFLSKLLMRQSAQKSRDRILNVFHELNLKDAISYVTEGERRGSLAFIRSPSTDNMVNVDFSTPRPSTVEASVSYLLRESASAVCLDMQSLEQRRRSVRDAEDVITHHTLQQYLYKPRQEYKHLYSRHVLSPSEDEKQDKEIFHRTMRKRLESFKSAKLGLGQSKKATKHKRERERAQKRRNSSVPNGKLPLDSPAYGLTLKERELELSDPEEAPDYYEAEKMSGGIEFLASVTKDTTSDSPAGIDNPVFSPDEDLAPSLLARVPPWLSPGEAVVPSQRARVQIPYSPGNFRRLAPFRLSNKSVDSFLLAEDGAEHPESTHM

[5] = mean of three independent experiments, read-out: Inhibition constants (IC50) of 22Na+ uptake, mean
[6] = single representative experiment, nonlinear least squares fit, read-out: IC50 of the representative curves (FIG. 6)

Row | SMILES | ΔpHi at steady state after addition ([1]; FGF 10 ng/ml (n=4) or PMA 1.0 μM (n=5), 130 mM Na+ medium, controls −0.006±0.012) | time to reach new steady state pHi (average) ([1]; FGF 10 ng/ml or PMA 1.0 μM added at steady-state pHi) | effect on human NHE3 Na+/H+ exchange activity (in words) ([1]; FGF 10 ng/ml, 8-bromo-cAMP 0.5 mM, PMA 1.0 μM, at steady-state pHi) | IC50 [2, 5] | IC50 [2, 6] | IC50 [3] | IC50 [4]
1 | CCCCCCCCCCCCCC(=O)O[C@@H]1[C@@H](C)[C@@]2(O)[C@@H](C=C(CO)C[C@]3(O)C(=O)C(C)=C[C@@H]23)[C@@H]2C(C)(C)[C@]12OC(C)=O [PMA, phorbol 12-myristate 13-acetate] | −0.052±0.006 | less than 2 min | inhibition of the transfected Na^+/H^+ exchanger; also recorded: inhibited | – | – | – | –
2 | N=C(N)NC(=O)c1nc(Cl)c(N)nc1N [Amiloride, amiloride] | – | – | – | 49 µM | 59 µM | 100 µM | 39 µM
3 | CCN(c1nc(N)c(C(=O)NC(=N)N)nc1Cl)C(C)C [Ethylisopropylamiloride, ethylisopropylamiloride] | – | – | – | 6.6 µM | 8.8 µM | 2.4 µM | 8 µM
